From patent US11045507B2, “Bifidobacterium animalis AMT30 strain and the composition containing the strain of Bifidobacterium animalis AMT30” (priority 2019, dated 2021)

Tested on: Bifidobacterium animalis AMT30
Assay: Ability of Bifidobacterium animalis AMT30 to grow in the presence of selected antibiotics (shared cultures, Garche's liquid medium)
Type: cell-based
Conditions: for growth of AMT30 in the presence of the antibiotic (in words): 24 h shared culture, relative to control culture or inoculum; for The number of B. animalis AMT30 after 24 hours of incubation: inoculum AMT30 4.9 × 10^6 cfu/ml, antibiotic at concentration corresponding to the animal dose per kg b.w., control without antibiotic 2.4 × 10^9
Protocol: Studies on the ability to grow of Bifidobacterium animalis AMT30 in the presence on 20 selected antibiotics were performed using shared cultures method. For this purpose Garche's liquid medium was inoculated with both Bifidobacterium animalis AMT30 in an amount of 4.9×10^6 colony forming units/ml and one of 20 antibiotics in concentration corresponding to an antibiotic dose used in animal treatment per kilogram of body weight. The culture was carried out in three parallel tubes under anaerobic conditions at 37° C. for 24 hours. In addition, parallel control culture of the studied strain without presence of selected antibiotics was carried out. The number of the live cells was determined directly after inoculation and after 24 hours. Incubation of bacteria on Petri dishes was carried out at 37° C. for 48 hours under anaerobic conditions (sealed jar with GasPack AN0025A cartridge, Oxoid).

## CCCc1ncc(C[n+]2ccccc2C)c(N)n1 [Amprolium]
  growth of AMT30 in the presence of the antibiotic (in words): Outstanding activity to multiply

## COC(=O)Nc1nc2cc(C(=O)c3ccc(F)cc3)ccc2[nH]1 [Flubendazole]
  growth of AMT30 in the presence of the antibiotic (in words): Outstanding activity to multiply

## c1ccc([C@H]2CN3CCSC3=N2)cc1 [Levamisole]
  growth of AMT30 in the presence of the antibiotic (in words): Outstanding activity to multiply

## Nc1ccc(S(=O)(=O)[N-]c2cncc(Cl)n2)cc1.[Na+] [Sodium sulfachloropyrazine]
  growth of AMT30 in the presence of the antibiotic (in words): Outstanding activity to multiply
  The number of B. animalis AMT30 after 24 hours of incubation: 2.4 × 10^9 cfu/ml

## CC[C@H]1OC(=O)C[C@@H](O)[C@H](C)[C@@H](O[C@@H]2O[C@H](C)[C@@H](O)[C@H](N(C)C)[C@H]2O)[C@@H](CCN2C[C@H](C)C[C@H](C)C2)C[C@@H](C)C(=O)/C=C/C(C)=C/[C@@H]1CO[C@@H]1O[C@H](C)[C@@H](O)[C@@H](OC)[C@H]1OC [Tilmicosin]
  growth of AMT30 in the presence of the antibiotic (in words): remained at the level of inoculum

## Cc1cc(-n2c(=O)[nH]c(=O)n(C)c2=O)ccc1Oc1ccc(SC(F)(F)F)cc1 [Toltrazuril]
  growth of AMT30 in the presence of the antibiotic (in words): Outstanding activity to multiply

## CC[C@H]1OC(=O)C[C@@H](O)[C@H](C)[C@@H](O[C@@H]2O[C@H](C)[C@@H](O[C@H]3C[C@@](C)(O)[C@@H](O)[C@H](C)O3)[C@H](N(C)C)[C@H]2O)[C@@H](CC=O)C[C@@H](C)C(=O)/C=C/C(C)=C/[C@@H]1CO[C@@H]1O[C@H](C)[C@@H](O)[C@@H](OC)[C@H]1OC [Tylosin]
  growth of AMT30 in the presence of the antibiotic (in words): remained at the level of inoculum

## CC[C@H]1OC(=O)C[C@@H](OC(C)=O)[C@H](C)[C@@H](O[C@@H]2O[C@H](C)[C@@H](O[C@H]3C[C@@](C)(O)[C@@H](OC(=O)CC(C)C)[C@H](C)O3)[C@H](N(C)C)[C@H]2O)[C@@H](CC=O)C[C@@H](C)C(=O)/C=C/C(C)=C/[C@@H]1CO[C@@H]1O[C@H](C)[C@@H](O)[C@@H](OC)[C@H]1OC [Tylvalosin]
  The number of B. animalis AMT30 after 24 hours of incubation: 3.2 × 10^5 cfu/ml

## Colistin
  growth of AMT30 in the presence of the antibiotic (in words): Outstanding activity to multiply
  The number of B. animalis AMT30 after 24 hours of incubation: 1.9 × 10^9 cfu/ml

## Neomycin
  growth of AMT30 in the presence of the antibiotic (in words): Outstanding activity to multiply
  The number of B. animalis AMT30 after 24 hours of incubation: 3.3 × 10^7 cfu/ml
